Assays:
[1] = system: rat sensory neurones (dorsal root ganglia); assay: Neurite length of sensory neurones (anti β-Tubulin) in cisplatin-induced toxicity model; type: cell-based; conditions: for Mean neurite Length / neurite length, % Control without cisplatin: 10 ng/ml + cisplatin 3 μg/ml; for effect on cisplatin-induced loss of neurites (in words): 10 ng/ml, cisplatin 3 μg/ml
Experimental: (§1) The low molecular weight glycosaminoglycans are referred to in the examples as 2400 D.
(§2) 1. neurone cell bodies stained with an anti MAP 2 antibody (microtubule associated protein, and 2. neurite network density stained with an anti β-Tubulin antibody
Rat sensory neurones were prepared according to the method described by Hall et al 1997(3). Briefly, a female rat (15 days gestation) was killed by cervical dislocation (Rats Wistar; Janvier, Le Genest-St-Isle, France) and the foetuses removed from the uterus. Their spinal cords with the dorsal root ganglia (DRG) were removed and placed in ice-cold medium of Leibovitz (L15, Fisher 11415-049) containing Penicillin 50 Ul/ml—Streptomycin 50 μg/ml (PS, 1%) and bovine serum albumin (BSA 1%, Sigma A6003). The DRG were recovered and dissociated by trypsinisation for 20 min at 37° C. (trypsin EDTA 10×, 10%, Fisher 15400054) diluted in PBS without calcium and magnesium (Fisher 2007-03). […] The cell suspension was triturated with a 10 ml pipette and centrifuged at 350×g for 10 min at room temperature. The pellet of dissociated cells was then resuspended in defined culture medium.
Viable cells were counted in a Neubauer cytometer using the trypan blue exclusion test (Sigma) and seeded at a density of 30 000 cells/well in 96 well-plates (Nunc). Wells were pre-coated with poly-L-lysine (10 μg/ml, Sigma P2636) in ultra pure sterile water (Merck Eurolab 60759.01).
Cells were allowed to adhere for 2 h and maintained in a humidified incubator at 37° C. in 5% CO2/95% air atmosphere.
(§3) Six wells per condition were carried out to assess neuronal survival. After 48 hours and 72 hours of incubation, the neuronal cells were fixed for 5 minutes in an ethanol/acetic acid solution (95%/5%) at −20° C. and rinsed 3 times in PBS.
(§4) Cell bodies of sensory neurones were labelled by monoclonal anti MAP-2 antibody (Sigma M4403, see photograph 1A) and the neurite of sensory neurones were labelled by monoclonal β-Tubulin antibody (Sigma T8660). These antibodies were diluted at 1:400 in incubation solution (PBS with 5% of FCS and 0.1% of saponin, Sigma S-7900). These antibodies specifically label neurone cell bodies and neurites, respectively.
After 2 hours of incubation, the cells were washed in PBS and incubated with Alexa Fluor 488 goat anti mouse IgG (Molecular Probes A11001) diluted at 1:300 in incubation solution to reveal the MAP-2 and the β-Tubulin antibodies. Cell nuclei were stained with a fluorescent marker (Hoechst staining solution, SIGMA H6024, 1 μg/ml in incubation solution during 1 hour).
(§5) For each condition, 2 pictures per well (12 pictures per condition) were taken using In Cell Analyzer 1000 (Amersham Biosciences) controlled by the computer software In Cell Analyzer 1000 3.2. For the MAP-2 labelling, the magnification was ×10, for the β-Tubulin labelling, the magnification was ×20. For each labelling, all the images were taken in the same conditions.
(§6) Analysis of the number of cell bodies labelled with anti MAP-2 antibodies, and total length of neurites labelled with anti β-Tubulin antibodies, were carried out using In Cell Analyzer 1000 3.2.Workstation software. The results were expressed in percentage compared to the vehicle. The comparisons of each group were carried out using the unpaired T test.

[2] = system: rat sensory neurones (dorsal root ganglia); assay: Number of neuronal cell bodies per field (anti MAP-2) in cisplatin-induced toxicity model; type: cell-based; conditions: for number of cell bodies per field, Average / number of cell bodies, % Control without cisplatin: 10 ng/ml + cisplatin 3 μg/ml; for effect on cisplatin-induced loss of cell bodies (in words): 10 ng/ml, cisplatin 3 μg/ml
Experimental: as §1, §2
Briefly, a female rat (15 days gestation) was killed by cervical dislocation (Rats Wistar; Janvier, Le Genest-St-Isle, France) and the foetuses removed from the uterus. […] The DRG were recovered and dissociated by trypsinisation for 20 min at 37° C. […] The cell suspension was triturated with a 10 ml pipette and centrifuged at 350×g for 10 min at room temperature. The pellet of dissociated cells was then resuspended in defined culture medium.
Viable cells were counted in a Neubauer cytometer using the trypan blue exclusion test (Sigma) and seeded at a density of 30 000 cells/well in 96 well-plates (Nunc).
as §3, §4
Cell nuclei were stained with a fluorescent marker (Hoechst staining solution, SIGMA H6024, 1 μg/ml in incubation solution during 1 hour).
as §5, §6

## NGF: Nerve Growth Factor, a specific growth factor for sensory neurons; reference compound
[1]; 48 hours
  Mean neurite Length: 6362.44 μm
  neurite length, % Control without cisplatin: 117%
  effect on cisplatin-induced loss of neurites (in words): prevented cisplatin-induced loss of neurites
[1]; 72 hours
  Mean neurite Length: 6000.30 μm
  neurite length, % Control without cisplatin: 113%
  effect on cisplatin-induced loss of neurites (in words): prevented cisplatin-induced loss of neurites
[2]; 48 hours
  number of cell bodies per field, Average: 58.33
  number of cell bodies, % Control without cisplatin: 96%
  effect on cisplatin-induced loss of cell bodies (in words): almost completely prevented cisplatin-induced loss of cell bodies
[2]; 72 hours
  number of cell bodies per field, Average: 54.92
  number of cell bodies, % Control without cisplatin: 102%
[2]; 72 hours section (text prints 48 hours)
  effect on cisplatin-induced loss of cell bodies (in words): completely prevented cisplatin-induced loss of cell bodies
